Measured values: patent publication US20240400584A1, “COMPOUNDS AND METHODS FOR MODULATING SPLICING” (REMIX THERAPEUTICS INC., priority 2021, published 2024)

Key:
[1] = system: SMN2; experiment: Gene panel canonical junction qPCR assay, SMN2 CJ mRNA (Table 7); assay type: cell-based; details: Homo sapiens, read-out: SMN2 CJ mRNA decrease IC50
Method in brief: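 IC50 values reflect compound concentration giving 50% reduction in canonical exon–exon junction mRNA. Cell lysates from A673 or K562 treatments were reverse-transcribed and probed by junction-spanning qPCR, normalized to a housekeeper and vehicle, then fitted to a 4-parameter logistic equation.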

[2] = system: HiBit-tagged Target C in K562 cells; experiment: HiBiT protein abundance assay, Target C; assay type: cell-based, human; details: HiBiT-modified K562 cells, 24 hours, luminescence
Description: Compounds described herein were used to screen for effects on quantitative protein abundance using a HiBit assay system (Promega). Quantitative protein abundance was determined by measuring the protein levels of HiBit-tagged protein targets expressed in cell culture via luminescence using the Nano-Glo HiBiT Lytic Detection System, which uses a split complementation assay format to reconstitute NanoBiT enzyme to generate a luminescent signal. A protein abundance assay was developed such that endogenous protein targets could be modified with the HiBiT peptide tag and their abundance could be assessed after compound treatment. Briefly, K562 cell lines containing a HiBiT-modification were treated with various compounds described herein (e.g., compounds of Formulas (I)). After treatment for 24 hours, the protein abundance of a specific target was determined by measuring luminescence.
Cells were maintained in IMDM with 10% FBS. Before the assay, cells were diluted with […] growth media (IMDM+[…] media) and were seeded in a 384-well plate at a density of 10000 cells/well (for each cell line listed in Table 8). Each compound was prepared as a 10-point 3-fold serial dilution in DMSO with the top dose at a final concentration of 10 μM in the well. Unmodified K562 cells were added at the previously specified density with DMSO to serve as an assay baseline and positive control (PC) and DMSO only with the respective modified cell lines was added to the negative control (NC) columns. Final DMSO concentration was kept at or below 0.25% o. Treated cell plates were placed in an incubator at 37° C. with […] for 24 hours. After 24 hours, 25 μL of Complete HiBit Lytic reagent was added to each well at room temperature (e.g. one plate requiring 10 mL Lytic Buffer, 100 μL LgBiT Protein, 200 μL Lytic Substrate), shaken for 5 minutes at 600 RPM, then left to sit for 10 minutes for signal to stabilize before reading on a Spark Cyto plate reader (Tecan) with a 500 ms measurement time.
To determine compound effects on protein abundance of each target in Table 9, the percent response for each respective cell line was calculated at each compound concentration as follows:
For the normalized response at each concentration, a four-parameter logistical regression was fit to the data and the response was interpolated at the […] to determine a concentration for protein abundance at 50% o (IC50) the untreated control.

| Compound | IC50 [1] [nM] | IC50 [2] [nM] |
| --- | --- | --- |
| CN(c1ccc2c(n1)OCc1cc(-n3cccn3)ccc1-2)[C@@H]1C[C@H]2CC[C@@H](C1)N2 [Compound 149] | 100 to 1000 | 100 to 1000 |
| COc1cc(-c2ccc3c(c2)COc2nc(N4CCC(N5CCCC5)C4)ccc2-3)cnn1 (stereo not shown) [Compound 305] | 100 to 1000 | 100 to 1000 |
